Test results taken from patent US4705753A, “Biologically active acrylonitrile-based copolymeric membrane” (priority 1984, dated 1987).

Molecular target: glucose isomerase (GI) from Streptomyces albus, purified, covalently immobilized on acrylonitrile copolymer membrane (Streptomyces albus G, UniProt P24299)
Settings: substrate glucose; membrane-bound GI; 70° C., pH 6.8 maleate buffer, 7 mM MgSO4, 3 mM CoSO4

Sequence of glucose isomerase (GI) from Streptomyces albus, purified, covalently immobilized on acrylonitrile copolymer membrane (P24299 whole entry): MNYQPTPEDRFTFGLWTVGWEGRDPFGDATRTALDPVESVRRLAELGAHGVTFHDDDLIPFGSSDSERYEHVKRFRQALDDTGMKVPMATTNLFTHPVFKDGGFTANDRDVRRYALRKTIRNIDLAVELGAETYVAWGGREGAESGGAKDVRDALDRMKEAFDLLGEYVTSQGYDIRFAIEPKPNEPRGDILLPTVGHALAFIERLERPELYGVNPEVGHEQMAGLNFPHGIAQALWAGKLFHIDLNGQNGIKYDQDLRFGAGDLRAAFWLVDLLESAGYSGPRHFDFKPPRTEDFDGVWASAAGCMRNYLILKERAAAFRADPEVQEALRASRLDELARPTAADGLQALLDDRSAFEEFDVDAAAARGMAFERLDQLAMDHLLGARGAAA

Compound: OC[C@H]1OC(O)[C@H](O)[C@@H](O)[C@@H]1O (stereo partly shown) [glucose]
- Vmax for the immobilized GI: ~15 µmol/min/mg
